Source: patent publication US20240197685A1, “SELECTIVE ANGIOTENSIN II RECEPTOR LIGANDS” (priority 2021, published 2024)
pIC50, pKi: −log10 of the molar value. Where “and” joins values, the source holds several entries; their conditions need not be identical. Equal entries are not always repeated. Where two headings read alike, the source gives them in different places.

How the values were obtained:
[1] = biological target: T1, CYP3A4 (Homo sapiens, UniProt P08684); assay: CYP inhibition, human liver microsomes; format: in vitro ADME; conditions: for inhibition at 10 µM: probe midazolam, substrate midazolam, human liver microsomes, read-out: CYP3A4 midazolam Inh %
T1 construct: tissue Eurofins protocol ITEMG232; host or cells: human liver microsomes

[2] = biological target: T2, CYP2C8 (Homo sapiens, UniProt P10632); assay: CYP inhibition, human liver microsomes; format: in vitro ADME; conditions: probe paclitaxel and amodiaquine, substrates paclitaxel and amodiaquine, read-out: CYP2C8 Inh %
T2 construct: tissue Eurofins protocol ITEMG232; host or cells: human liver microsomes
T2 sequence (P10632 1-490): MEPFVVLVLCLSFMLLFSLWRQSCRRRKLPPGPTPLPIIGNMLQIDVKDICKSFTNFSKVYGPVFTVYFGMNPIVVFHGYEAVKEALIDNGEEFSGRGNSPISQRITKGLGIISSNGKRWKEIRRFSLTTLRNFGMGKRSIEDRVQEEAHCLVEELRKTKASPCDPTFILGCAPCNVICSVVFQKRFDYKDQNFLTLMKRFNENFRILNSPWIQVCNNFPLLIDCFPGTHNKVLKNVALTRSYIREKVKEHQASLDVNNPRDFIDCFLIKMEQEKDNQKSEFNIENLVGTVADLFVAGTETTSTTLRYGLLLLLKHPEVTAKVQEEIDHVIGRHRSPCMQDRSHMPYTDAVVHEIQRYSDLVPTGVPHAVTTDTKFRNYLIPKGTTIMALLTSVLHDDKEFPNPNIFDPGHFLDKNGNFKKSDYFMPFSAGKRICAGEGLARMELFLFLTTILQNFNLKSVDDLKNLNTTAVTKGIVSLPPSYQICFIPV

[3] = biological target: T3, CYP2C19 (Homo sapiens, UniProt P33261); assay: CYP inhibition, human liver microsomes; format: in vitro ADME; conditions: probe omeprazole, substrate omeprazole, read-out: CYP2C19 Inh %
T3 construct: tissue Eurofins protocol ITEMG232; host or cells: human liver microsomes

[4] = biological target: T4, human recombinant AT2 receptor (Homo sapiens, UniProt P50052); assay: Binding to AT2 receptor, radiometric scintillation assay (Eurofins); conditions: for pIC50: read-out: AT2 GraFit IC50; for pKi: seven-point dose-response curve, read-out: AT2R Ki
T4 construct: Eurofins protocol ITEM26
T4 sequence (P50052 1-363): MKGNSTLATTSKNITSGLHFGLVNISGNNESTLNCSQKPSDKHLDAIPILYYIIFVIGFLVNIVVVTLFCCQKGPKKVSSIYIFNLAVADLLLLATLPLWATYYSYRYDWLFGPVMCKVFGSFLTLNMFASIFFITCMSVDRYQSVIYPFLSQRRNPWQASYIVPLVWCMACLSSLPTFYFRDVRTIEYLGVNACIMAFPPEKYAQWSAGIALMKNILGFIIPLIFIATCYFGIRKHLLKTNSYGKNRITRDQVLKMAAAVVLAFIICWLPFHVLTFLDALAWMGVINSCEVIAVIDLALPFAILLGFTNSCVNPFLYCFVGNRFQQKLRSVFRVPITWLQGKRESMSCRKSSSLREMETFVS

[5] = Metabolic stability in pooled human liver microsomes; format: in vitro ADME; conditions: for half-life at 1 μM: human, pooled human liver microsomes, human liver microsomes 0.5 mg/mL, test compound 1 μM, 37° C.
[6] = biological target: T5, CYP2B6 (Homo sapiens, UniProt P20813); assay: CYP inhibition, human liver microsomes; format: in vitro ADME; conditions: probe bupropion, substrate bupropion, read-out: CYP2B6 Inh %
T5 construct: tissue Eurofins protocol ITEMG232; host or cells: human liver microsomes
T5 sequence (P20813 1-491): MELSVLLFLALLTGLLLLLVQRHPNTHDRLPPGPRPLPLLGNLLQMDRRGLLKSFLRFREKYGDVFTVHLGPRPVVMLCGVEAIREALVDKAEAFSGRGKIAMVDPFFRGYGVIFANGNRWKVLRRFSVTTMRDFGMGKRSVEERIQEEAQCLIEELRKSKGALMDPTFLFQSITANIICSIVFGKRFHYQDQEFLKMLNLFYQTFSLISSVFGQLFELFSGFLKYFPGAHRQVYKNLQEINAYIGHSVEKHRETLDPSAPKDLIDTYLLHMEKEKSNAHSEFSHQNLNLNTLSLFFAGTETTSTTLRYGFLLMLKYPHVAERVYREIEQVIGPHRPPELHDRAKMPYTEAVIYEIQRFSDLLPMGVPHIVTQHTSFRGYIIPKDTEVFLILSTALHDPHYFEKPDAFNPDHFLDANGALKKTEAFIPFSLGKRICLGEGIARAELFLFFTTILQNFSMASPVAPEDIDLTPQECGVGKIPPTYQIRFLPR

[7] = biological target: T6, CYP2C9 (Homo sapiens, UniProt P11712); assay: CYP inhibition, human liver microsomes; format: in vitro ADME; conditions: for inhibition at 10 µM: probe diclofenac, substrate diclofenac, human liver microsomes, read-out: CYP2C9 Inh %
T6 construct: tissue Eurofins protocol ITEMG232; host or cells: human liver microsomes

[8] = system: CYP3A4&5; assay: CYP inhibition, human liver microsomes; format: in vitro ADME; conditions: probe testosterone, substrate testosterone, read-out: CYP3A4&5 testosterone Inh %
[9] = biological target: T7, CYP2D6 (Homo sapiens, UniProt P10635); assay: CYP inhibition, human liver microsomes; format: in vitro ADME; conditions: probe dextromethorphan, substrate dextromethorphan, read-out: CYP2D6 Inh %
T7 construct: tissue Eurofins protocol ITEMG232; host or cells: human liver microsomes

[10] = biological target: T8, CYP1A (Homo sapiens, UniProt P05177); assay: CYP inhibition, human liver microsomes; format: in vitro ADME; conditions: probe phenacetin, substrate phenacetin, read-out: CYP1A Inh %
T8 construct: tissue Eurofins protocol ITEMG232; host or cells: human liver microsomes
T8 sequence (P05177 2-516 limits assumed): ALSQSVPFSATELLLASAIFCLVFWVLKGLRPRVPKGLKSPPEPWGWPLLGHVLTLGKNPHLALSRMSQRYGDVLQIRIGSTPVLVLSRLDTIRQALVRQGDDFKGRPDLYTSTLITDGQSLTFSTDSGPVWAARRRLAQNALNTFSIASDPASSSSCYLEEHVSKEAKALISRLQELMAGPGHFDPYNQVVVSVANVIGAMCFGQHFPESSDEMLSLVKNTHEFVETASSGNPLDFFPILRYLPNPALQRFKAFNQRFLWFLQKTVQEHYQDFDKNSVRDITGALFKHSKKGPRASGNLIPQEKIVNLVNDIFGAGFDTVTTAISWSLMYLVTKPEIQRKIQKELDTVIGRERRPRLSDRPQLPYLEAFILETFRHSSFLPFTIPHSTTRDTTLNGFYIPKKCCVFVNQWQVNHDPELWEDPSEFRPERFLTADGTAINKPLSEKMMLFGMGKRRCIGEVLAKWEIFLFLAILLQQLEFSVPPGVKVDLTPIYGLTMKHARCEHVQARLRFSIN

[11] = biological target: T9, human recombinant AT1 receptor (Homo sapiens, UniProt P30556); assay: Binding to AT1 receptor, radiometric scintillation assay (Eurofins); conditions: single run; 1 and 10 μM; ligand 125I(sar1,Ile8)-AT-II
T9 construct: Eurofins protocol ITEM24
T9 sequence (P30556 1-359): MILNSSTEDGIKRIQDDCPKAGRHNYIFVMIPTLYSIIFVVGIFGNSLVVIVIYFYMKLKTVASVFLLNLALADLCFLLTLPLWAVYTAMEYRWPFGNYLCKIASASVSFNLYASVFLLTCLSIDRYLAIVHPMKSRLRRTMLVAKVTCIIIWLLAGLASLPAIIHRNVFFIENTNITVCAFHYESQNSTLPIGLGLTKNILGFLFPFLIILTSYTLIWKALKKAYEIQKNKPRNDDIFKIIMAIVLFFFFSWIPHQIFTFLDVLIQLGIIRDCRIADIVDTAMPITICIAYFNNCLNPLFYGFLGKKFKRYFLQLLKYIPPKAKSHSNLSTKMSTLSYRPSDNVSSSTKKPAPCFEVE

[12] = single run, 1, 10, 100 and 1000 nM, ligand 125I CGP 42112A
[13] = with 1 mM NADPH, read-out: T1/2, + NaDPH
[14] = without NADPH, read-out: T1/2, no NaDPH
[15] = found during development, background statement

T7 sequence (P10635 whole entry): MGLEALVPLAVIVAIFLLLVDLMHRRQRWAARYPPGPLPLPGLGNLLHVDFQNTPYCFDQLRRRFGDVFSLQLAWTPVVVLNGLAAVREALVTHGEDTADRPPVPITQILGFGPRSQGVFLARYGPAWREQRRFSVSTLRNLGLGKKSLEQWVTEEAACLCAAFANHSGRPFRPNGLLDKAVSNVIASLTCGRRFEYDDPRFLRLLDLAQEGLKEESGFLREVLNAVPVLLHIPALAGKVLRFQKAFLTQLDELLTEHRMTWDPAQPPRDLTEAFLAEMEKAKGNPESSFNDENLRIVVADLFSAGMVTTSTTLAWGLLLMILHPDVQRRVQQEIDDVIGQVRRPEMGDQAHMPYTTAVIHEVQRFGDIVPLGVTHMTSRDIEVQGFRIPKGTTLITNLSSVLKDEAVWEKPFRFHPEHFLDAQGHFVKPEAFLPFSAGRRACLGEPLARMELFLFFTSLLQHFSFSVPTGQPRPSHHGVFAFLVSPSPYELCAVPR
T3 sequence (P33261 whole entry): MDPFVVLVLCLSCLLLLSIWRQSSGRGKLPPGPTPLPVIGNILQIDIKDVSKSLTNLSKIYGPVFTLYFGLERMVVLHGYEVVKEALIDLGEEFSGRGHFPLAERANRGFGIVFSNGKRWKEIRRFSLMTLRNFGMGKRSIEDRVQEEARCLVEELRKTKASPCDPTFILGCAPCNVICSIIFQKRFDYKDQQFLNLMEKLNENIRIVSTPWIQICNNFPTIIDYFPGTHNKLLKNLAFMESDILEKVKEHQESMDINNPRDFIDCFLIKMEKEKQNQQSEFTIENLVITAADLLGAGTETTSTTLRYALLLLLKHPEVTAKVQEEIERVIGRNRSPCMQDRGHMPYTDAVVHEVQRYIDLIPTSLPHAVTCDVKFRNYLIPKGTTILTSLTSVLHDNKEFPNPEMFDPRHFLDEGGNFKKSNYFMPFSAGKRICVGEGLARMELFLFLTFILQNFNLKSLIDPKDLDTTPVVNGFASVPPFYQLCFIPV
T1 sequence (P08684 whole entry): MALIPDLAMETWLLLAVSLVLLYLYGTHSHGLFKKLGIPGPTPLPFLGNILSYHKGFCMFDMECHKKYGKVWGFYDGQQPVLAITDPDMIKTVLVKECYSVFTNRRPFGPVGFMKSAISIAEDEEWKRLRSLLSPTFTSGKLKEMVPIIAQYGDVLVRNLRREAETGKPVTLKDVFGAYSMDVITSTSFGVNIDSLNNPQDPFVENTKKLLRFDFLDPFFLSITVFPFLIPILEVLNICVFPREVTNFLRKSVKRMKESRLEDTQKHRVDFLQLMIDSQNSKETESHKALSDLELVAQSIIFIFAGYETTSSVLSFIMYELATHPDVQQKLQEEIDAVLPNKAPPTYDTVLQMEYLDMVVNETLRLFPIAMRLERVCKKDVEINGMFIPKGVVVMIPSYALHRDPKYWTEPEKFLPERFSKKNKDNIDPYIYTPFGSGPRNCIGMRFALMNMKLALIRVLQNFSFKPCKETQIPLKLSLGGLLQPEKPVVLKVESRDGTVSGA
T6 sequence (P11712 whole entry): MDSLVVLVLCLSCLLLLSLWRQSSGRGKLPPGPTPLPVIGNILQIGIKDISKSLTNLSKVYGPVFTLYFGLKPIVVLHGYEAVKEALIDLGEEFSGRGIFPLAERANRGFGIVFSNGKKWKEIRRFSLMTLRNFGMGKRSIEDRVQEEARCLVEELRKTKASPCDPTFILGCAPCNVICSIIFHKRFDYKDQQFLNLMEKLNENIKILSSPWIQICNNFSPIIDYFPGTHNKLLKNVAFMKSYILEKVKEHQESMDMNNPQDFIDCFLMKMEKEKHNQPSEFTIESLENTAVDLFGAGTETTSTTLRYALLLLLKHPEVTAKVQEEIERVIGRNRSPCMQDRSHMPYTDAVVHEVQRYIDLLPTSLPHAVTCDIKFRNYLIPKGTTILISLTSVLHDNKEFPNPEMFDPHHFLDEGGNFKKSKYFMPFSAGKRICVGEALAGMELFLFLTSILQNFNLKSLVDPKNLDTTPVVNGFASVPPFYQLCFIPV

Compound | inhibition at 10 µM [1] | inhibition at 10 µM [2] | inhibition at 10 µM [3] | pIC50 [4, 12] | half-life at 1 μM [5, 13] | half-life at 1 μM [5, 14] | inhibition at 10 µM [6] | inhibition at 10 µM [7] | inhibition at 10 µM [8] | inhibition at 10 µM [9] | inhibition at 10 µM [10] | pIC50 [11] | inhibition of CYP 3A4 (in words) [1, 15] | metabolic hydrolysis (in words) [5, 15] | inhibition of CYP 2C9 (in words) [7, 15] | pIC50 ([4]; mean average of the runs) | pKi ([4]; ligand 125I CGP 42112A)
CC(C)Cc1cc(-c2ccc(Cn3ccnc3C(C)(C)C)c(F)c2)c(S(=O)(=O)NC(=O)NCc2ccccn2)s1 [Example 5, 1-[[3-[4-[(2-Tert-butylimidazol-1-yl)methyl]-3-fluoro-phenyl]-5-isobutyl-2-thienyl]sulfonyl]-3-(2-pyridylmethyl)urea] | 43% | 78.3% | 52.1% | 9.36 | > 1 h | > 1 h | 24.9% | 62.1% | 18.9% | 23.2% | 34.1% | 5.74 | – | – | – | – | –
CCCCOC(=O)NS(=O)(=O)c1sc(CC(C)C)cc1-c1ccc(Cn2ccnc2)cc1 [Example C21, N-butyloxycarbonyl-3-(4-imidazol-1-ylmethylphenyl)-5-isobutylthiophene-2-sulfon-amide, reference compound] | – | – | – | – | – | – | – | – | – | – | – | – | potent inhibitor | rapidly hydrolysed to an inactive sulfonamide metabolite | potent inhibitor | – | –
CC(C)Cc1cc(-c2ccc(Cn3ccnc3C(C)(C)C)c(F)c2)c(S(=O)(=O)NC(=O)NCc2cccs2)s1 [Example 7, 1-[[3-[4-[(2-Tert-butylimidazol-1-yl)methyl]-3-fluoro-phenyl]-5-isobutyl-2-thienyl]sulfonyl]-3-(2-thienylmethyl)urea] | 52.3% | 79.9% | 49.1% | 8.30 | 0.383 h | > 1 h | 50.5% | 76.3% | 16.7% | 13.8% | 20.7% | 5.51 | – | – | – | – | –
CC(C)Cc1cc(-c2ccc(Cn3ccnc3C(C)(C)C)cc2)c(S(=O)(=O)NC(=O)NCc2ccccn2)s1 [Example 4] | 33.7% | 79.3% | 44.4% | 8.43 and 8.68 | > 1 h | > 1 h | 13.8% | 43.5% | 16.7% | 24.3% | -0.5% | 5.52 | – | – | – | 8.54 | 8.72
CC(C)Cc1cc(-c2ccc(Cn3ccnc3C(C)(C)C)cc2)c(S(=O)(=O)NC(=O)NCc2ccco2)s1 [Example 1, Furan-2-ylmethyl-3-[[5-isobutyl-3-[4-[(2-tert-butyl-imidazol-1-yl)methyl]phenyl]-2-thienyl]sulfonyl]urea] | 11.6% | 77.8% | 49.1% | 8.59 and 8.24 | > 1 h | > 1 h | 96.5% | 58.4% | 11.8% | 13.8% | -13.2% | 5.52 | – | – | – | 8.38 | 8.55
CCNC(=O)NS(=O)(=O)c1sc(CC(C)C)cc1-c1ccc(Cn2ccnc2C(C)(C)C)c(F)c1 [Example 6, 1-[[3-[4-[(2-Tert-butylimidazol-1-yl)methyl]-3-fluoro-phenyl]-5-isobutyl-2-thienyl]sulfonyl]-3-ethyl-urea] | 23.8% | 77.6% | 35.1% | – | > 1 h | > 1 h | 27% | 39.7% | 10.8% | 18.8% | 15.8% | – | – | – | – | – | –
COCCNC(=O)NS(=O)(=O)c1sc(CC(C)C)cc1-c1ccc(Cn2ccnc2C(C)(C)C)cc1 [Example 3] | – | – | – | – | > 1 h | > 1 h | – | – | – | – | – | – | – | – | – | – | –
CC(C)Cc1cc(-c2ccc(Cn3ccnc3C(C)(C)C)cc2)c(S(=O)(=O)NC(=O)NCc2cccs2)s1 [Example 2] | 40.9% | 81.8% | 56.8% | 8.60 | 0.533 h | > 1 h | 9.6% | 64.6% | 18% | 33.6% | -1.8% | 5.70 | – | – | – | 8.60 | 8.90
